Data on three compounds can be found in patent US12479784B2, “Trisphenol derivative” (HONSHU CHEMICAL INDUSTRY CO., LTD., priority 2020, dated 2025).

Series [1] is described as follows: Evaluation Test 1: Solubility at 30° C. in ethyl lactate. Particulars: for Solubility (g/100 g, 30° C.): in ethyl lactate, stirred 3 hours, HPLC quantification. Type of series: physicochemical. The method, then:
(4) Conditions of solubility measurement and analysis of comparative compounds (x) and (y)
<Evaluation Test 1: Solubility at 30° C.>
For compound (C1) and compound (C2) obtained in Examples and the following two compounds having six functional groups likewise and reported as crosslinking agents, the solubility at 30° C. in ethyl lactate widely used as a resist solvent was measured. The following compounds are referred to as “comparative compound (x)” and “comparative compound (y)”.
A cross-shaped stirrer and 10 g of ethyl lactate were added to a 100 ml test tube, and after 10 g of comparative compound (x) (or (y)) was added, a siphon was attached. Under nitrogen purge, the test tube was set in a pre-conditioned water bath at 30° C. and stirred with the stirrer for 3 hours. After the stirring for 3 hours, the internal solution was sampled with a pipette, and solids were filtered off from the sampled solution through a syringe filter to put a filtrate in a 50 ml measuring flask. This was diluted to the 50 ml mark with methanol for HPLC and analyzed with a high-performance liquid chromatography analyzer. From the results obtained, comparative compound (x) (or (y)) in the filtrate was quantified using the peak area of comparative compound (x) (or (y)), and the solubility (=quantitative value (mg) of comparative compound (x) or (y)/(weight (mg) of filtrate put in 50 ml measuring flask through syringe filter-quantitative value (mg) of comparative compound (x) or (y)) was calculated.
Method of constructing calibration curve: comparative compound (x) (or (y)) used in the test was analyzed by HPLC, and an approximate straight line obtained by plotting the peak area of comparative compound (x) (or (y) on the horizontal axis and the concentration (mg/50 ml) of comparative compound (x) (or (y)) on the vertical axis with “intercept=0” was used as a calibration curve of comparative compound (x) (or (y)).

Series [2] is described as follows: Evaluation Test 2: Low-temperature storage stability (dissolution stability) of ethyl lactate solutions. It is filed as physicochemical. Set-up: key to Solution storage test 5° C. / Solution storage test −5° C.: ∘: Completely dissolved, and neither precipitation of crystals nor separation of oily components can be visually observed.; x: Precipitation of crystals or separation of oily components can be visually observed. Particulars: for Solution storage test −5° C. / Solution storage test 5° C.: ethyl lactate solution; for Solution storage test −5° C.: freezer −5° C.; for Solution storage test −5° C. / Solution storage test 5° C. / Crystallization on storage, in words: 30 days; for Solution storage test 5° C.: refrigerator 5° C.; for Crystallization on storage, in words: ethyl lactate solutions, both at 5° C. and −5° C. The method, then: <Evaluation Test 2: Low-Temperature Storage Stability (Dissolution Stability)>
In a 50 ml screw tube, 4.29 g of compound (C1), the inventive compound, and 5.71 g of ethyl lactate were placed and mixed, and the screw tube was put in a water bath set at 30° C. and stirred by shaking it by hand. Complete dissolution was visually observed, thus preparing an ethyl lactate solution with a compound (C1) concentration of 42.9 wt %.
In the same manner as for compound (C1), an ethyl lactate solution with a compound (C2) concentration of 40 wt %, an ethyl lactate solution with a compound (C2) concentration of 50 wt %, and an ethyl lactate solution with a compound (y) concentration of 40 wt % were prepared.
These solutions were subjected to solution storage tests in a refrigerator (5° C.) and a freezer (−5° C.) for 30 days.
∘: Completely dissolved, and neither precipitation of crystals nor separation of oily components can be visually observed.
x: Precipitation of crystals or separation of oily components can be visually observed.

Each structure is given as a SMILES string.

As to `COCc1cc(C(C)(C)c2ccc(C(C)(c3cc(COC)c(O)c(COC)c3)c3cc(COC)c(O)c(COC)c3)cc2)cc(COC)c1O` [Comparative compound (x), reference compound], the “Solubility (g/100 g, 30° C.)” value in series [1] was found to be 38.7 g/100 g.
As for `COCc1cc(C(C)(c2cc(COC)c(O)c(COC)c2)c2cc(COC)c(O)c(COC)c2)cc(COC)c1O` [(y), reference compound], in series [1], the “Solubility (g/100 g, 30° C.)” value stood at 84.0 g/100 g. In addition, in series [2] (concentration 40.0 wt %), the “Solution storage test −5° C.” value is reported as “x” and the “Solution storage test 5° C.” value is reported as “x”. The “Crystallization on storage, in words” value in series [2] was “experienced crystal precipitation”. For the same compound, the “Re-dissolution of precipitated crystals” value in series [2] (test sample with precipitated crystals left at room temperature (22° C.) for one day) is on record as “did not dissolve again”.
`COCc1cc(CCC(C)(c2cc(COC)c(O)c(C3CCCCC3)c2)c2cc(COC)c(O)c(C3CCCCC3)c2)cc(COC)c1O` [Compound (C2)]: in series [1] (ethyl lactate), the “Solubility in ethyl lactate relative to comparative compound (x)” value is listed as “more than twice higher” and the “Solubility in ethyl lactate relative to comparative compound (y)” value was “more soluble”. In series [1], this compound showed a Solubility (g/100 g, 30° C.) of over 100 g/100 g. In series [1] (listed as compound (C2)), the “Solubility (g/100 g, 30° C.)” value is “more than 100.0 g/100 g”. In series [2] (concentration 40.0 wt %), the “Solution storage test −5° C.” value is given as “∘” and the “Solution storage test 5° C.” value is “∘”. Further, in series [2] (concentration 50.0 wt %), the “Solution storage test −5° C.” value is “∘” and the “Solution storage test 5° C.” value was “∘”. Besides, the “Crystallization on storage, in words” value in series [2] is “did not crystallize at all”.
